Experimental data from patent US20130245598A1, “PHOTOACTIVE VITAMIN NANOPARTICLES FOR THE TREATMENT OF CHRONIC WOUNDS” (priority 2010, published 2013).
≈ marks a conversion by molar mass, not a printed value.

Columns and labels:
[1] = cited from the MSDS; cited from earlier work
[2] = cited from earlier work
DNA = DNA binding constant
plasmid DNA = test: Photocleavage of plasmid DNA (ethidium bromide stained agarose gel); type: biochemical; conditions: irradiation with visible light (λ>395 nm); 120 μM plasmid DNA; 25 and 50 μM riboflavin; 30 min incubation, 30 min irradiation
Excerpt: From the left: Lane 1: DNA only, dark. Lane 2: DNA only, irradiated.

[3] = Singlet oxygen study using ADPA as singlet oxygen sensor; type: physicochemical; conditions: after 15 minutes of irradiation
Water solubility = type: physicochemical
E. coli = test: microbe, parasite or virus in culture; conditions: Escherichia coli, light or radiation study, read-out: LD50 E. coli Irradiated

Excerpt for Human Skin: Toxicity of the formulations towards human skin cells is examined by previously published methods.

SMILES | LD50 Human Skin Dark (Human Skin; dark) | LD50 Human Skin Irradiated (Human Skin; irradiated) | LD50 Acute Oral Toxicity [1] | water solubility [2] | DNA binding constant Kb (DNA) | Photocleavage of plasmid DNA from Form I (supercoiled) to Form II (nicked) (plasmid DNA) | Production of singlet oxygen [3] | concentration showing precipitation in water (Water solubility) | LD50 (E. coli)
CC1=C(C/C=C(\C)CCC[C@H](C)CCC[C@H](C)CCCC(C)C)C(=O)c2ccccc2C1=O [Phylloquinone, phylloquinone] | No Effect | 18,779 mg/Kg | 25,000 mg/Kg | does not dissolve in water | – | – | – | – | –
Cc1cc2nc3c(=O)[nH]c(=O)nc-3n(C[C@H](O)[C@H](O)[C@H](O)CO)c2cc1C [Riboflavin, 7,8-dimethyl-10-ribityl-isoalloxazine] | – | – | – | 100 µg/mL (≈ 266 µM) | > 10^4 M^−1 | can cleave DNA | capable of producing a large quantity of singlet oxygen | 250 μm | 85 mg/kg
